Experimental data taken from US20230391772A1, “METHODS AND COMPOSITIONS FOR TARGETED PROTEIN DEGRADATION” (Ranok Therapeutics (Hangzhou) Co. Ltd., priority 2020, published 2023).

Assays:
[1] = biological target: KRAS(G12C) (Homo sapiens, UniProt P01116, G12C); assay: KRAS(G12C)/SOS1 homogeneous time-resolved fluorescence (HTRF) assay; design: purchased Cisbio 63ADK000CB16PEG; settings: absence of GTP, 4° C. for 3 hr, read-out: KRAS (G12C) binding
Description: KRAS(G12C)/SOS1 Homogeneous Time-Resolved Fluorescence (HTRF) Assay
Binding of test compounds to KRAS(G12C) protein, which in turn blocks KRAS(G12C) interaction with the SOS1 protein, was measured in the absences of GTP by homogeneous time-resolved fluorescence (HTRF) using the KRAS-G12C/SOS1 Binding Assay Kit (Cisbio, #63ADK000CB16PEG), following the manufacturer's instructions, except as noted. 3-fold serial dilutions of each test compound were prepared ranging from […] to 1.02 nM. The test compound was mixed and incubated with reaction components, incubated in a sealed plate at 4° C. for 3 hr and fluorescence was measured using a PerkinElmer Envision plate reader.

[2] = tested on: MIA PaCa-2 human pancreatic carcinoma; assay: MIA PaCa-2 CCK-8 proliferation assay; type: cell-based; settings: Homo sapiens, MIA PaCa-2, 72 h, MIA PaCa-2 cells
Description: The following cancer cell lines were employed: BT-474 human breast carcinoma (ATCC, #HTB-20); MIA PaCa-2 human pancreatic carcinoma [2 copies KRAS(G12C)](ATCC, #CRL-1420); NCI-H23 human non-small cell lung cancer [1 copy KRAS(G12C)](ATCC, #CRL-5800); NCI-H358 human non-small cell lung cancer [1 copy KRAS(G12C)](ATCC, #CRL-5807); LU65A human lung carcinoma (Pharmaron, Beijing, China). Cell lines were cultured essentially according to ATCC and Pharmaron recommendations.
Cancer Cell Line Proliferation (CCK-8) Assays
3-fold serial dilutions of each test compound were prepared ranging from 20 μM to 1.02 nM.
% Inhibition=100−(D−B)/(S−B)*100%. • S: Absorbance of cells treated with DMSO • D: Absorbance of compound-treated cells • B: Absorbance of medium with DMSO without cells

[3] = biological target: T1, HSP90a protein (Homo sapiens, UniProt P07900); assay: HSP90α-binding fluorescent polarization (FP) assay, BODIPY-labeled RNK04010 probe; settings: FP competition with RNK04010 (BODIPY-labeled), 5 nM, 300 min at 25° C.
T1 construct: purchased BPS Bioscience 50298
Description: HSP90α-Binding Fluorescent Polarization (FP) Assay
Binding of test compounds to HSP90a protein was measured by fluorescent polarization (FP) using the HSP90a (N-terminal) Assay Kit (BPS Bioscience, #50298), following the manufacturer's instructions, except as noted. Fluorescently labeled HSP90-binding compounds, either the provided FITC-geldanamycin (5 nM final concentration) or RNK04010, a triazolone-based HSP90 binding small molecule labeled with BODIPY through a piperizine-phenyl linker (5 nM final concentration) were employed. A 2.5-fold serial dilution of each test compound ranging from 20 μM to 5.2 nM was assayed for binding to HSP90a. After the final step of adding HSP90a protein to each assay well, plates were mixed by brief shaking, incubated at 25° C. for 120 min for FITC-geldanamycin or 300 min for RNK04010, and fluorescence was measured using a PerkinElmer EnVision Plate Reader.

Chain of KRAS(G12C) (P01116 1-188 isoform P01116-2 G12C): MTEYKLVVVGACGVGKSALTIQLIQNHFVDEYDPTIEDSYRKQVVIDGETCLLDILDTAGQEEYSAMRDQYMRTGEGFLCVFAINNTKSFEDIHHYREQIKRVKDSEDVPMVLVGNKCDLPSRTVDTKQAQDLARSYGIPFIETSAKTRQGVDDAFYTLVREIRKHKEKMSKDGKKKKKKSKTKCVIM

| IC50 [1] [µM] | EC50 [2] [µM] | IC50 [3] [µM] | Compound |
| --- | --- | --- | --- |
| < 0.1 | 0.1 to 1 | – | C=CC(=O)N1CCN(c2nc(OCCN3CCC(C(=O)N4CCN(Cc5ccc(-n6c(C(=O)NC)nnc6-c6cc(C(C)C)c(O)cc6O)cc5)CC4)CC3)nc3c2CCN(c2cccc4cccc(Cl)c24)C3)C[C@@H]1CC#N [Compound 239, (S)-4-(4-((4-(1-(2-((4-(4-acryloyl-3-(cyanomethyl)piperazin-1-yl)-7-(8-chloronaphthalen-1-yl)-5,6,7,8-tetrahydropyrido[3,4-d]pyrimidin-2-yl)oxy)ethyl)piperidine-4-carbonyl)piperazin-1-yl)methyl)phenyl)-5-(2,4-dihydroxy-5-isopropylphenyl)-N-methyl-4H-1,2,4-triazole-3-carboxamide] |
| < 0.1 | – | < 0.1 | C=CC(=O)N1CCN(c2nc(OC[C@@H]3CC[C@H](C(=O)N4CCN(C(=O)C5CCN(Cc6ccc(-n7c(O)nnc7-c7cc(C(C)C)c(O)cc7O)cc6)CC5)CC4)N3C)nc3c2CCN(c2cccc4cccc(Cl)c24)C3)C[C@@H]1CC#N [Compound 341, 2-[(2S)-4-[7-(8-chloronaphthalen-1-yl)-2-{[(2S,5R)-5-{4-[1-({4-[3-(2,4-dihydroxy-5-isopropylphenyl)-5-hydroxy-1,2,4-triazol-4-yl]phenyl}methyl)piperidine-4-carbonyl]piperazine-1-carbonyl}-1-methylpyrrolidin-2-yl]methoxy}-5H,6H,8H-pyri-do[3,4-d]pyrimidin-4-yl]-1-(prop-2-enoyl)piperazin-2-yl]acetonitrile] |
| < 0.1 | 0.1 to 1 | – | C=CC(=O)N1CCN(c2nc(OCCN3CCC(C(=O)N4CCN(CCNC(=O)c5nnc(-c6cc(C(C)C)c(O)cc6O)n5-c5ccccc5)CC4)CC3)nc3c2CCN(c2cccc4cccc(Cl)c24)C3)C[C@@H]1CC#N [Compound 243, (S)—N-(2-(4-(1-(2-((4-(4-acryloyl-3-(cyanomethyl)piperazin-1-yl)-7-(8-chloronaphthalen-1-yl)-5,6,7,8-tetrahydropyrido[3,4-d]pyrimidin-2-yl)oxy)ethyl)piperidine-4-carbonyl)piperazin-1-yl)ethyl)-5-(2,4-dihydroxy-5-isopropylphenyl)-4-phenyl-4H-1,2,4-triazole-3-carboxamide] |
| – | > 1 | < 0.1 | C=CC(=O)N1CCN(c2nc(OC[C@@H]3C[C@@H](NC(=O)C4CCN(Cc5ccc(-n6c(C(=O)NCCN(CC)CC)nnc6-c6cc(C(C)C)c(O)cc6O)cc5)CC4)CN3C)nc3c2CCN(c2cccc4cccc(Cl)c24)C3)C[C@@H]1CC#N [Compound 204, N-((3R,5S)-5-(((4-((S)-4-acryloyl-3-(cyanomethyl)piperazin-1-yl)-7-(8-chloronaphthalen-1-yl)-5,6,7,8-tetrahydropyrido[3,4-d]pyrimidin-2-yl)oxy)methyl)-1-methylpyrrolidin-3-yl)-1-(4-(3-((2-(diethylamino)ethyl)carbamoyl)-5-(2,4-dihydroxy-5-isopropylphenyl)-4H-1,2,4-triazol-4-yl)benzyl)piperidine-4-carboxamide] |
| 0.1 to 1 | 0.1 to 1 | – | C=CC(=O)N1CCN(c2nc(OC[C@@H]3CCN3C(=O)C3CCN(Cc4ccc(-n5c(C(N)=O)nnc5-c5cc(C(C)C)c(O)cc5O)cc4)CC3)nc3c2CCN(c2cccc4cccc(Cl)c24)C3)C[C@@H]1CC#N [Compound 190, 4-(4-((4-((S)-2-(((4-((S)-4-acryloyl-3-(cyanomethyl)piperazin-1-yl)-7-(8-chloronaphthalen-1-yl)-5,6,7,8-tetrahydropyrido[3,4-d]pyrimidin-2-yl)oxy)methyl)azetidine-1-carbonyl)piperidin-1-yl)methyl)phenyl)-5-(2,4-dihydroxy-5-isopropylphenyl)-4H-1,2,4-triazole-3-carboxamide] |
| – | > 1 | < 0.1 | C=CC(=O)N1CCN(c2nc(OC[C@@H]3CCN(CCCOCCC(=O)NCc4ccc(-n5c(O)nnc5-c5cc(C(C)C)c(O)cc5O)cc4)C3)nc3c2CCN(c2cccc4cccc(Cl)c24)C3)C[C@@H]1CC#N [Compound 182, 3-(3-((R)-3-(((4-((S)-4-acryloyl-3-(cyanomethyl)piperazin-1-yl)-7-(8-chloronaphthalen-1-yl)-5,6,7,8-tetrahydropyrido[3,4-d]pyrimidin-2-yl)oxy)methyl)pyrrolidin-1-yl)propoxy)-N-(4-(3-(2,4-dihydroxy-5-isopropylphenyl)-5-hydroxy-4H-1,2,4-triazol-4-yl)benzyl)propanamide] |

The remaining lines, values behind:

| Compound | IC50 [1] [µM] | EC50 [2] [µM] | IC50 [3] [µM] |
| --- | --- | --- | --- |
| C=CC(=O)N1CCN(c2nc(OCCN3CCC(N4CCN(C(=O)C5CCN(Cc6ccc(-n7c(C(N)=O)nnc7-c7cc(C(C)C)c(O)cc7O)cc6)CC5)CC4)CC3)nc3c2CCN(c2cccc4cccc(Cl)c24)C3)C[C@@H]1CC#N [Compound 249, (S)-4-(4-((4-(4-(1-(2-((4-(4-acryloyl-3-(cyanomethyl)piperazin-1-yl)-7-(8-chloronaphthalen-1-yl)-5,6,7,8-tetrahydropyrido[3,4-d]pyrimidin-2-yl)oxy)ethyl)piperidin-4-yl)piperazine-1-carbonyl)piperidin-1-yl)methyl)phenyl)-5-(2,4-dihydroxy-5-isopropylphenyl)-4H-1,2,4-triazole-3-carboxamide] | < 0.1 | 0.1 to 1 | – |
| C=CC(=O)N1CCN(c2nc(OCCN3CCN(C4CCN(Cc5ccc(-n6c(O)nnc6-c6cc(C)c(O)cc6O)cc5)CC4)CC3)nc3c2CCN(c2cccc4cccc(Cl)c24)C3)C[C@@H]1CC#N [Compound 267, (S)-2-(1-acryloyl-4-(7-(8-chloronaphthalen-1-yl)-2-(2-(4-(1-(4-(3-(2,4-dihydroxy-5-methylphenyl)-5-hydroxy-4H-1,2,4-triazol-4-yl)benzyl)piperidin-4-yl)piperazin-1-yl)ethoxy)-5,6,7,8-tetrahydropyrido[3,4-d]pyrimidin-4-yl)piperazin-2-yl)acetonitrile] | < 0.1 | > 1 | – |
| C=CC(=O)N1CCN(c2nc(OCCN3CCC(C(=O)N4CCN(Cc5ccc(-n6c(C(=O)NCCN7CCN(S(C)(=O)=O)CC7)nnc6-c6cc(C(C)C)c(O)cc6O)cc5)CC4)CC3)nc3c2CCN(c2cccc4cccc(Cl)c24)C3)C[C@@H]1CC#N [Compound 242, (S)-4-(4-((4-(1-(2-((4-(4-acryloyl-3-(cyanomethyl)piperazin-1-yl)-7-(8-chloronaphthalen-1-yl)-5,6,7,8-tetrahydropyrido[3,4-d]pyrimidin-2-yl)oxy)ethyl)piperidine-4-carbonyl)piperazin-1-yl)methyl)phenyl)-5-(2,4-dihydroxy-5-isopropylphenyl)-N-(2-(4-(methylsulfonyl)piperazin-1-yl)ethyl)-4H-1,2,4-triazole-3-carboxamide] | < 0.1 | 0.1 to 1 | – |
| C=CC(=O)N1CCN(c2nc(OC[C@@H]3CC[C@H](C(=O)N4CCN(C(=O)C5CCN(Cc6ccc(-n7c(O)nnc7-c7cc(C(C)C)c(O)cc7O)cc6)CC5)CC4)N3C)nc3c2CCN(c2cccc4cccc(Cl)c24)C3)C[C@@H]1CC#N [Compound 305, 2-[(2S)-4-[7-(8-chloronaphthalen-1-yl)-2-{[(2S,5R)-5-{4-[1-({4-[3-(2,4-dihydroxy-5-isopropylphenyl)-5-hydroxy-1,2,4-triazol-4-yl]phenyl}methyl)piperidine-4-carbonyl]piperazine-1-carbonyl}-1-methylpyrrolidin-2-yl]methoxy}-5H,6H,8H-pyri-do[3,4-d]pyrimidin-4-yl]-1-(prop-2-enoyl)piperazin-2-yl]acetonitrile] | – | 0.1 to 1 | < 0.1 |
| C=CC(=O)N1CCN(c2nc(OC[C@@H]3CC[C@H](C(=O)N4CCN(C(=O)C5CCN(Cc6ccc(-n7c(O)nnc7-c7cc(C)c(O)cc7O)cc6)CC5)CC4)N3C)nc3c2CCN(c2cccc4cccc(Cl)c24)C3)C[C@@H]1CC#N [Compound 306, 2-[(2S)-4-[7-(8-chloronaphthalen-1-yl)-2-{[(2S,5R)-5-{4-[1-({4-[3-(2,4-dihydroxy-5-methylphenyl)-5-hydroxy-1,2,4-triazol-4-yl]phenyl}methyl)piperidine-4-carbonyl]piperazine-1-carbonyl}-1-methylpyrrolidin-2-yl]methoxy}-5H,6H,8H-pyrido [3,4-d]pyrimidin-4-yl]-1-(prop-2-enoyl)piperazin-2-yl]acetonitrile] | – | > 1 | < 0.1 |
